target: T1, human PKCθ full length enzyme (Homo sapiens, UniProt Q04759); assay: PKCθ IMAP Assay; assay type: biochemical; settings: average value when one or more samples were tested; ATP 6 uM, PKCθ 1 nM
T1 construct: human PKCθ full length enzyme (Panvera Catalog No. P2996); purchased Panvera P2996
Procedure: The materials used include the following: human PKCθ full length enzyme (Panvera Catalog No. P2996); substrate peptide: 5FAM-[…]-OH (Molecular Devices, RP7032); ATP (Sigma Cat # A2383); DTT (Pierce, 20291); 5× kinase reaction buffer (Molecular Devices, R7209); 5× binding buffer A (Molecular Devices, R7282), 5× binding buffer B (Molecular Devices, R7209); IMAP Beads (Molecular Devices, R7284); and 384-well plates (Corning Costar, 3710).
The reaction buffer was prepared by diluting the 5× stock reaction buffer and adding DTT to obtain a concentration of 3.0 mM. The binding buffer was prepared by diluting the 5× binding buffer A. A master mix solution was prepared using a 90% dilution of the reaction buffer containing 2×ATP (12 uM) and 2× peptide ([…]). […] The final concentration of compound was 2× and 10% DMSO. DMSO was added to the rest of the master mix to increase the concentration to 10%. 10 ul of the master mix containing 10% DMSO was added to the rest of the wells on the plate except the 2nd column. 20 ul was transferred from the first column to the 2nd column. The compounds were serially diluted in 2:1 ratio starting from the 2nd column. A 2× (2 nM) PKCθ solution was made in the reaction buffer. 10 ul of the PKCθ solution was added to every well to achieve these final concentrations: PKCθ—1 nM; ATP—6 uM; peptide—100 nM; DMSO—5%. Samples were incubated for 25 minutes at room temperature. The binding reagent was prepared by diluting the beads in 1× binding buffer to 800:1. 50 ul of the binding reagent was added to every well and incubated for 20 minutes. FP was measured using Envision2100 (PerkinElmer Life Sciences). Wells with no ATPs and wells with no enzymes were used as controls.

T1 sequence (Q04759 whole entry): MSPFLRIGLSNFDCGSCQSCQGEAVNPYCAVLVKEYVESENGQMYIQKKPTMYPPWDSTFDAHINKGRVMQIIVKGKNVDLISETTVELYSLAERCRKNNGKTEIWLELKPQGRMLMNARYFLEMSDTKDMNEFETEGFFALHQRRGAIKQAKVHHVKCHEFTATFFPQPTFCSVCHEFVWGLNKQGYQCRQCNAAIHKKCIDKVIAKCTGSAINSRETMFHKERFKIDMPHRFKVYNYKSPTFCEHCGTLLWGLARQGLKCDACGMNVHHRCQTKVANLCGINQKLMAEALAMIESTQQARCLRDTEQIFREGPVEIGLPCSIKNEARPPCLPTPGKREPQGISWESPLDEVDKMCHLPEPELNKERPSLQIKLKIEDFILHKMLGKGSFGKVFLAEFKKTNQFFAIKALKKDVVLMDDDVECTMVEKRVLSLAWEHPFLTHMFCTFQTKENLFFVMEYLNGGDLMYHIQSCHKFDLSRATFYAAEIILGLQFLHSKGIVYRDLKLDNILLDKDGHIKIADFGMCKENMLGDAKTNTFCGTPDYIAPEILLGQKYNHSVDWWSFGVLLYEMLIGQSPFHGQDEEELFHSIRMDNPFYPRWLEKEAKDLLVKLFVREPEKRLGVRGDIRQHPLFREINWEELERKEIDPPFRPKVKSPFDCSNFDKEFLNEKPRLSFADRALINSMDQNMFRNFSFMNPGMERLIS

Row | IC50 [nM] | Structure (SMILES)
1 | 413 | COC/C=C/c1cc2c(Nc3ccc4[nH]ccc4c3)c(C#N)cnc2s1 [Compound 412, 4-(1H-indol-5-ylamino)-2-[(1E)-3-methoxyprop-1-en-1-yl]thieno[2,3-b]pyridine-5-carbonitrile]
2 | 20 | Cc1c(Nc2c(C#N)cnc3sc(-c4ccc(S(=O)(=O)N(C)C)cc4)cc23)ccc2[nH]ccc12 [Compound 236, 4-{5-cyano-4-[(4-methyl-1H-indol-5-yl)amino]thieno[2,3-b]pyridin-2-yl}-N,N-dimethylbenzenesulfonamide]
3 | 99 | Cc1c(Nc2c(C#N)cnc3sc(-c4cccc(CN(C)C)c4)c(C)c23)ccc2[nH]ccc12 [Compound 458, 2-{3-[(dimethylamino)methyl]phenyl}-3-methyl-4-[(4-methyl-1H-indol-5-yl)amino]thieno[2,3-b]pyridine-5-carbonitrile]
4 | 48 | N#Cc1cnc2sc(-c3ccccc3)cc2c1Nc1cnc2[nH]ccc2c1Cl [Compound 524, 4-[(4-chloro-1H-pyrrolo[2,3-b]pyridin-5-yl)amino]-2-phenylthieno[2,3-b]pyridine-5-carbonitrile]
5 | 118 | Cc1c(Nc2c(C#N)cnc3sc(-c4ccccc4F)cc23)ccc2[nH]ccc12 [Compound 388, 2-(2-fluorophenyl)-4-[(4-methyl-1H-indol-5-yl)amino]thieno[2,3-b]pyridine-5-carbonitrile]
6 | 1100 | CCOC(=O)c1cc2c(Nc3ccc4[nH]ccc4c3)c(C#N)cnc2s1 [Compound 502, ethyl 5-cyano-4-(1H-indol-5-ylamino)thieno[2,3-b]pyridine-2-carboxylate]
7 | 270 | COCCN(C)Cc1cccc(-c2cc3c(Nc4ccc5[nH]ccc5c4)c(C#N)cnc3s2)c1 [Compound 162, 4-(1H-indol-5-ylamino)-2-(3-{[(2-methoxyethyl)(methyl)amino]methyl}phenyl)thieno[2,3-b]pyridine-5-carbonitrile]
8 | 84 | CN(C)Cc1cccc(C#Cc2cc3c(Nc4cccc5[nH]ccc45)c(C#N)cnc3s2)n1 [Compound 219, 2-({6-[(dimethylamino)methyl]pyridin-2-yl}ethynyl)-4-(1H-indol-4-ylamino)thieno[2,3-b]pyridine-5-carbonitrile]
9 | 50 | Cc1c(Nc2c(C#N)cnc3sc(-c4cccc(S(=O)(=O)N(C)C)c4)cc23)ccc2[nH]ccc12 [Compound 237, 3-{5-cyano-4-[(4-methyl-1H-indol-5-yl)amino]thieno[2,3-b]pyridin-2-yl}-N,N-dimethylbenzenesulfonamide]
10 | 160 | Cc1c(Nc2c(C#N)cnc3sc(-c4ccc(N5CCOCC5)nc4)cc23)ccc2[nH]ccc12 [Compound 329, 4-[(4-methyl-1H-indol-5-yl)amino]-2-(6-morpholin-4-ylpyridin-3-yl)thieno[2,3-b]pyridine-5-carbonitrile]
11 | 70 | Cc1c(Nc2c(C#N)cnc3sc(-c4cc5ccccc5[nH]4)cc23)ccc2[nH]ccc12 [Compound 434, 2-(1H-indol-2-yl)-4-[(4-methyl-1H-indol-5-yl)amino]thieno[2,3-b]pyridine-5-carbonitrile]
12 | 177 | Cc1c(Nc2c(C#N)cnc3sc(-c4ccccc4OC[C@H](C)O)cc23)ccc2[nH]ccc12 [Compound 491, 2-(2-{[(2S)-2-hydroxypropyl]-oxy}phenyl)-4-[(4-methyl-1H-indol-5-yl)amino]thieno[2,3-b]pyridine-5-carbonitrile]
13 | 375 | Cc1c(Nc2c(C#N)cnc3sc(/C=C/C(=O)NN4CCCC4)cc23)ccc2[nH]ccc12 [Compound 314, (2E)-3-{5-cyano-4-[(4-methyl-1H-indol-5-yl)amino]thieno[2,3-b]pyridin-2-yl}-N-pyrrolidin-1-ylacrylamide]
14 | 29 | Cc1c(Nc2c(C#N)cnc3sc(-c4ccc(O)cc4)cc23)ccc2[nH]ccc12 [Compound 441, 2-(4-hydroxyphenyl)-4-[(4-methyl-1H-indol-5-yl)amino]thieno[2,3-b]pyridine-5-carbonitrile]
15 | 71 | Cc1c(Nc2c(C#N)cnc3sc(C(=O)Nc4cccnc4)cc23)ccc2[nH]ccc12 [Compound 263, 5-cyano-4-[(4-methyl-1H-indol-5-yl)amino]-N-pyridin-3-ylthieno[2,3-b]pyridine-2-carboxamide]
16 | 93 | Cc1c(Nc2c(C#N)cnc3sc(-c4ccccc4CN(C)C)cc23)ccc2[nH]ccc12 [Compound 156, 2-{2-[(dimethylamino)methyl]phenyl}-4-[(4-methyl-1H-indol-5-yl)amino]thieno[2,3-b]pyridine-5-carbonitrile]

Row | IC50 [nM] | Structure (SMILES)
17 | 74 | Cc1c(Nc2c(C#N)cnc3sc(-c4ccc5[nH]ccc5c4)cc23)ccc2[nH]ccc12 [Compound 520, 2-(1H-indol-5-yl)-4-[(4-methyl-1H-indol-5-yl)amino]thieno[2,3-b]pyridine-5-carbonitrile]
18 | 66 | Cc1c(Nc2c(C#N)cnc3sc(-c4cc(C(=O)N(C)C)ccc4F)cc23)ccc2[nH]ccc12 [Compound 511, 3-{5-cyano-4-[(4-methyl-1H-indol-5-yl)amino]thieno[2,3-b]pyridin-2-yl}-4-fluoro-N,N-dimethylbenzamide]
19 | 304 | CN1CCN(C/C=C/c2cc3c(Nc4ccc5[nH]ccc5c4)c(C#N)cnc3s2)CC1 [Compound 277, 4-(1H-indol-5-ylamino)-2-[(1E)-3-(4-methylpiperazin-1-yl)prop-1-en-1-yl]thieno[2,3-b]pyridine-5-carbonitrile]
20 | 1210 | CC(C)c1c(-c2cccc(CN(C)C)c2)sc2ncc(C#N)c(Nc3ccc4[nH]ccc4c3)c12 [Compound 516, 2-{3-[(dimethylamino)methyl]phenyl}-4-(1H-indol-5-ylamino)-3-isopropylthieno[2,3-b]pyridine-5-carbonitrile]
21 | 17 | Cc1c(Nc2c(C#N)cnc3sc(/C=C/CN4CCN(C)CC4)c(C)c23)ccc2[nH]ccc12 [Compound 279, 3-methyl-4-[(4-methyl-1H-indol-5-yl)amino]-2-[(1E)-3-(4-methylpiperazin-1-yl)prop-1-en-1-yl]thieno[2,3-b]pyridine-5-carbonitrile]
22 | 6 | COc1ccc(CN2CCN(C)CC2)cc1-c1cc2c(Nc3ccc4[nH]ccc4c3C)c(C#N)cnc2s1 [Compound 461, 2-{2-methoxy-5-[(4-methylpiperazin-1-yl)methyl]phenyl}-4-[(4-methyl-1H-indol-5-yl)amino]thieno[2,3-b]pyridine-5-carbonitrile]
23 | 4 | Cc1c(Nc2c(C#N)cnc3sc(/C=C/C(=O)N4CCCC4)cc23)ccc2[nH]ccc12 [Compound 294, 4-[(4-methyl-1H-indol-5-yl)amino]-2-[(1E)-3-oxo-3-pyrrolidin-1-ylprop-1-en-1-yl]thieno[2,3-b]pyridine-5-carbonitrile]
24 | 71 | COc1ccc(C=O)c(-c2cc3c(Nc4ccc5[nH]ccc5c4C)c(C#N)cnc3s2)c1 [Compound 514, 2-(2-formyl-5-methoxyphenyl)-4-[(4-methyl-1H-indol-5-yl)amino]thieno[2,3-b]pyridine-5-carbonitrile]
25 | 11 | Cc1c(Nc2c(C#N)cnc3scc(C(C)C)c23)ccc2[nH]ccc12 [Compound 503, 3-isopropyl-4-[(4-methyl-1H-indol-5-yl)amino]thieno[2,3-b]pyridine-5-carbonitrile]
26 | 2 | Cc1c(Nc2c(C#N)cnc3sc(/C=C/C(=O)N(C)C)cc23)ccc2[nH]ccc12 [Compound 305, (2E)-3-{5-cyano-4-[(4-methyl-1H-indol-5-yl)amino]thieno[2,3-b]pyridin-2-yl}-N,N-dimethylacrylamide]
27 | 2450 | N#Cc1cnc2sc(/C=C/c3ccc(F)cc3)cc2c1Nc1ccc2[nH]ccc2c1 [Compound 401, 2-[(E)-2-(4-fluorophenyl)vinyl]-4-(1H-indol-5-ylamino)thieno[2,3-b]pyridine-5-carbonitrile]
28 | 477 | COc1ccc(/C=C/c2cc3c(Nc4ccc5[nH]ccc5c4)c(C#N)cnc3s2)cc1 [Compound 405, 4-(1H-indol-5-ylamino)-2-[(E)-2-(4-methoxyphenyl)vinyl]thieno[2,3-b]pyridine-5-carbonitrile]
29 | 9 | Cc1c(Nc2c(C#N)cnc3sc(-c4cccc(C(=O)NCCN(C)C)c4)cc23)ccc2[nH]ccc12 [Compound 339, 3-{5-cyano-4-[(4-methyl-1H-indol-5-yl)amino]thieno[2,3-b]pyridin-2-yl}-N-[2-(dimethylamino)ethyl]benzamide]
30 | 51 | Cc1c(Nc2c(C#N)cnc3sc(-c4cccc(NS(=O)(=O)N(C)C)c4)cc23)ccc2[nH]ccc12 [Compound 509, N′-(3-{5-cyano-4-[(4-methyl-1H-indol-5-yl)amino]thieno[2,3-b]pyridin-2-yl}phenyl)-N,N-dimethylsulfamide]
31 | 280 | N#Cc1cnc2sc(-c3cccc(CN4CCN(CCn5ccnc5)CC4)c3)cc2c1Nc1ccc2[nH]ccc2c1 [Compound 175, 2-[3-({4-[2-(1H-imidazol-1-yl)ethyl]piperazin-1-yl}methyl)phenyl]-4-(1H-indol-5-ylamino)thieno[2,3-b]pyridine-5-carbonitrile]
